Results reported in patent US20120083522A1, “MODULATION OF INFLAMMATORY RESPONSES BY FACTOR XI” (Isis Pharmaceuitcals, inc., priority 2009, published 2012).

Key:
[1] = test system: human Factor XI mRNA; assay: Antisense inhibition in HepG2 cells by microwalk gapmers, 75 nM, lipofectin (Example 3); format: cell-based; details: HepG2 cells, 75 nM, oligonucleotides targeted to nucleobases 1275 to 1318 of SEQ ID NO: 1
Procedure, shortened: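 HepG2 cells (10,000 per well) were transfected with 75 nM gapmer using lipofectin and treated for about 24 h. Factor XI mRNA was quantified by real-time PCR, normalized to RiboGreen total RNA and expressed as percent inhibition versus untreated controls.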

[2] = test system: human Factor XI mRNA; assay: Dose-dependent inhibition in HepG2 cells, lipofectin (Example 5); format: cell-based; details: 16 hours
Description: (§1) Cells were plated at a density of 10,000 cells per well and transfected using lipofectin reagent with 2.34 nM, 4.69 nM, 9.375 nM, 18.75 nM, 37.5 nM, and 75 nM concentrations of antisense oligonucleotide, as specified in Table 11. After a treatment period of approximately 16 hours, RNA was isolated from the cells and human Factor XI mRNA levels were measured by quantitative real-time PCR. Human Factor XI primer probe set RTS 2966 was used to measure mRNA levels. Factor XI mRNA levels were adjusted according to total RNA content, as measured by RIBOGREEN®. Results are presented as percent inhibition of human Factor XI, relative to untreated control cells.

[3] = test system: human Factor XI mRNA; assay: Dose-dependent inhibition in HepB3 cells, lipofectin (Example 7); format: cell-based; details: approx. 16 h
Description: as §1, with “4,000” for “10,000”, “2.3” for “2.34”, “4.7” for “4.69”, “9.4” for “9.375”, “14.” for “11.”, “of” for “of human”

[4] = Tolerability in Sprague-Dawley rats: body and organ weight (Example 19); format: in vivo; details: 50 mg/kg s.c. twice per week for 6 weeks, change over weight at start of study
Description: Urine samples were taken before the start of treatment.
The body weights are presented in Table 78 and are expressed as a percent change over the weights taken at the start of the study.

Row | Substance | % inhibition of human Factor XI mRNA levels [1] | percent inhibition of human Factor XI mRNA, relative to untreated control cells ([2]; 2.34 nM) | percent inhibition of human Factor XI mRNA, relative to untreated control cells ([2]; 4.69 nM) | percent inhibition of human Factor XI mRNA, relative to untreated control cells ([2]; 9.375 nM) | percent inhibition of human Factor XI mRNA, relative to untreated control cells ([2]; 18.75 nM) | percent inhibition of human Factor XI mRNA, relative to untreated control cells ([2]; 37.5 nM) | percent inhibition of human Factor XI mRNA, relative to untreated control cells ([2]; 75 nM) | percent inhibition of human Factor XI mRNA ([3]; 2.3 nM) | percent inhibition of human Factor XI mRNA ([3]; 4.7 nM) | percent inhibition of human Factor XI mRNA ([3]; 9.4 nM) | percent inhibition of human Factor XI mRNA ([3]; 18.75 nM) | percent inhibition of human Factor XI mRNA ([3]; 37.5 nM) | percent inhibition of human Factor XI mRNA ([3]; 75 nM) | Percent change in Body weight [4]
1 | 417002 (antisense GGTGCACAGTTTCTGGCAGG; 2-13-5 gapmer, wing sugar chemistry not given here, further chemistry not given here) [compound 417002] | 92% | 17% | 26% | 49% | 61% | 81% | 84% | 24% | 30% | 46% | 57% | 71% | 65% | −29%
2 | 417003 (antisense TGGTGCACAGTTTCTGGCAG; 2-13-5 gapmer, wing sugar chemistry not given here, further chemistry not given here) [compound 417003] | 89% | 6% | 29% | 48% | 64% | 73% | 82% | 11% | 28% | 40% | 40% | 63% | 58% | −40%
